Broadly, the IC50 is the concentration that gives 50% inhibition.

For one experiment, the target named is T1, HDM2 (Homo sapiens, UniProt Q00987).
T1 construct: Thioredoxin (N); made in house; host or cells: E. coli strain BL21(DE3)Rosetta
T1 sequence (Q00987 17-125): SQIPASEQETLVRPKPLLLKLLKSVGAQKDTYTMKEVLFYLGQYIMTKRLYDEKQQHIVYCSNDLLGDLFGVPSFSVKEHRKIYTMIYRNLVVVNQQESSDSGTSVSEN
Put plainly: FRET assay (HDM2 inhibition; method not described in this part). It counts as binding. Conditions: Table 1.
On to `CCc1ccc(O)c(-c2nc3nc(C(=O)O)nc(N[C@H](C)C4CCC4)c3n2Cc2ccc(C(F)(F)F)cc2)c1` [Example 1.29, 6-{[(1R)-1-cyclobutylethyl]amino}-8-(5-ethyl-2-hydroxyphenyl)-7-[4-(trifluoromethyl)benzyl]-7H-purine-2-carboxylic acid], for which the IC50 stood at 46.1 nM. In the case of `COc1ccc(-c2nc3nc(C(=O)O)nc(N[C@H](C)C4CCC4)c3n2Cc2ccc(C(F)(F)F)cc2)nc1` [Example 1.20, 6-{[(1R)-1-cyclobutylethyl]amino}-8-(5-methoxypyridin-2-yl)-7-[4-(trifluoromethyl)benzyl]-7H-purine-2-carboxylic acid], the IC50 was found to be 24.1 nM. Still for that read-out and setting: as for `Cc1ccc(C)c(-c2nc3nc(C(=O)O)nc(N[C@H](C)C4CCC4)c3n2Cc2ccc(C(F)(F)F)cc2)n1` [Example 1.21, 6-{[(1R)-1-cyclobutylethyl]amino}-8-(3,6-dimethylpyridin-2-yl)-7-[4-(trifluoromethyl)benzyl]-7H-purine-2-carboxylic acid], the figure is 27 nM.

As to `CC(C)c1ccc(OC(F)(F)F)c(-c2nc3nc(C(=O)O)nc(N[C@H](C)C4CCC4)c3n2Cc2ccc(C(F)(F)F)cc2)c1` [Example 1.52, 6-{[(1R)-1-cyclobutylethyl]amino}-8-[5-(1-methylethyl)-2-(trifluoromethoxy)phenyl]-7-[4-(trifluoromethyl)benzyl] - 7H-purine-2-carboxylic acid], the IC50 came to 6.25 nM. Still for that read-out and setting: as for `C[C@@H](Nc1nc(C(=O)O)nc2nc(-c3cccc(Nc4ccccc4)c3)n(Cc3ccc(C(F)(F)F)cc3)c12)C1CCC1` [Example 1.130, 6-{[(1R)-1-cyclobutylethyl]amino}-8-[3-(phenylamino)phenyl]-7-[4-(trifluoromethyl)benzyl]-7H-purine-2-carboxylic acid], the figure is 76.3 nM; as for `C[C@@H](Nc1nc(C(=O)O)nc2nc(-c3cc(-c4ccccc4)ccn3)n(Cc3ccc(C(F)(F)F)cc3)c12)C1CCC1` [Example 1.26, 6-{[(1R)-1-cyclobutylethyl]amino}-8-(4-phenylpyridin-2-yl)-7-[4-(trifluoromethyl)benzyl] - 7H-purine-2-carboxylic acid], 12.1 nM; as for `CC(C)c1ccnc(-c2nc3nc(C(=O)O)nc(N[C@H](C)C4CCC4)c3n2Cc2ccc(C(F)(F)F)s2)c1` [Example 1.7, 6-{[(1R)-1-cyclobutylethyl]amino}-8-[4-(propan-2-yl)pyridin-2-yl]-7-{[5-(trifluoromethyl)thiophen-2-yl]methyl}-7H-purine-2-carboxylic acid], 26.9 nM. On the same count and under the same terms, as for `Cc1cccnc1-c1nc2nc(C(=O)O)nc(N[C@H](C)C3CCC3)c2n1Cc1ccc(C(F)(F)F)cc1` [Example 1.18], the figure is 45.7 nM.

`C[C@@H](Nc1nc(C(=O)O)nc2nc(-c3cc(CCC(C)(C)C)ccn3)n(Cc3ccc(C(F)(F)F)cc3)c12)C1CCC1` [Example 1.88, 6-{[(1R)-1-cyclobutylethyl]amino}-8-[4-(3,3-dimethylbutyl)pyridin-2-yl]-7-[4-(trifluoromethyl)benzyl]-7H-purine-2-carboxylic acid] showed a 50% inhibitory concentration (IC50) of 19.6 nM. Same read-out and setting: as for `CCc1ccnc(-c2nc3nc(C(=O)O)nc(N[C@H](C)C4CCC4)c3n2Cc2ccc(C(F)(F)F)cc2)c1` [Example 1.69, 6-{[(1R)-1-cyclobutylethyl]amino}-8-(4-ethylpyridin-2-yl)-7-[4-(trifluoromethyl)benzyl]-7H-purine-2-carboxylic acid], the figure is 42.7 nM.

For the compound `C[C@@H](Nc1nc(C(=O)O)nc2nc(-c3cc(C(C)(C)C)ccn3)n(Cc3ccc(C(F)(F)F)c(F)c3)c12)C1CCC1` [Example 1.76, 8-(4-tert-butylpyridin-2-yl)-6-{[(1R)-1-cyclobutylethyl]amino}-7-[3-fluoro-4-(trifluoromethyl)benzyl]-7H-purine-2-carboxylic acid], the IC50 turned out to be 8.49 nM. The same measure, in the same setting: as for `CCOc1ccc(C)cc1-c1nc2nc(C(=O)O)nc(N[C@H](C)C3CCC3)c2n1Cc1ccc(C(F)(F)F)cc1` [Example 1.138, 6-{[(1R)-1-cyclobutylethyl]amino}-8-(2-ethoxy-5-methylphenyl)-7-[4-(trifluoromethyl)benzyl]-7H-purine-2-carboxylic acid], the figure is 15.8 nM.

`Cc1cnc(-c2nc3nc(C(=O)O)nc(N[C@H](C)C4CCC4)c3n2Cc2ccc(C(F)(F)F)c(F)c2)cc1C(C)C` [Example 1.92, 6-{[(1R)-1-cyclobutylethyl]amino}-7-[3-fluoro-4-(trifluoromethyl)benzyl]-8-[5-methyl-4-(1-methylethyl)pyridin-2-yl]-7H-purine-2-carboxylic acid] yielded an IC50 of 15.9 nM. The compound `Cc1cc(OC(F)(F)F)ccc1-c1nc2nc(C(=O)O)nc(N[C@H](C)C3CCC3)c2n1Cc1ccc(C(F)(F)F)cc1` [Example 1.129, 6-{[(1R)-1-cyclobutylethyl]amino}-8-[2-methyl-4-(trifluoromethoxy)phenyl]-7-[4-(trifluoromethyl)benzyl]-7H-purine-2-carboxylic acid] yielded an IC50 of 46 nM.

Staying with this experiment, now noted: Table 2.
With `C[C@@H](Nc1nc(C(=O)O)nc2nc(-c3ccc(C#N)cc3)n(Cc3ccc(C(F)(F)F)cc3)c12)C1CC1` [Example 2.57, 8-(4-cyanophenyl)-6-{[(1R)-1-cyclopropylethyl]amino}-7-[4-(trifluoromethyl)benzyl]-7H-purine-2-carboxylic acid], the midpoint of inhibition, the IC50, lay at 432 nM.

`COc1cccc(-c2nc3nc(C(=O)O)nc(N[C@H](C)C4CC4)c3n2Cc2ccc(C(F)(F)F)cc2)c1` [Example 2.14, 6-{[(1R)-1-cyclopropylethyl]amino}-8-(3-methoxyphenyl)-7-[4-(trifluoromethyl)benzyl]-7H-purine-2-carboxylic acid] displayed an IC50 of 339 nM.

`C[C@@H](Nc1nc(C(=O)O)nc2nc(-c3cnc(O)c(F)c3)n(Cc3ccc(C(F)(F)F)cc3)c12)C1CC1` [Example 2.51, 6-{[(1R)-1-cyclopropylethyl]amino}-8-(5-fluoro-6-hydroxypyridin-3-yl)-7-[4-(trifluoromethyl)benzyl]-7H-purine-2-carboxylic acid] had an IC50 of 1230 nM.

`C[C@@H](Nc1nc(C(=O)O)nc2nc(-c3cccc(OC(F)(F)F)c3)n(Cc3ccc(C(F)(F)F)cc3)c12)C1CCC1` [Example 2.39, 6-{[(1R)-1-cyclobutylethyl]amino}-8-[3-(trifluoromethoxy)phenyl]-7-[4-(trifluoromethyl)benzyl]-7H-purine-2-carboxylic acid] registered an IC50 of 52 nM. `CCc1ccccc1-c1nc2nc(C(=O)O)nc(N[C@H](C)C3CCC3)c2n1Cc1ccc(C(F)(F)F)cc1` [Example 2.81, 6-{[(1R)-1-cyclobutylethyl]amino} -8-(2-ethylphenyl)-7-[4-(trifluoromethyl)benzyl] - 7H-purine-2-carboxylic acid] came in with a 50% inhibitory concentration (IC50) of 18 nM. Same read-out and setting: as for `C[C@@H](Nc1nc(C(=O)O)nc2nc(-c3cccc(C(F)(F)F)c3)n(Cc3ccc(C(F)(F)F)cc3)c12)C1CCC1` [Example 2.38, 6-{[(1R)-1-cyclobutylethyl]amino}-7-[4-(trifluoromethyl)benzyl]-8-[3-(trifluoromethyl)phenyl]-7H-purine-2-carboxylic acid], the figure is 11.2 nM. Still for that read-out and setting: as for `C[C@@H](Nc1nc(C(=O)O)nc2nc(-c3ccc(Br)cc3F)n(Cc3ccc(C(F)(F)F)cc3)c12)C1CC1` [Example 2.75, 8-(4-bromo-2-fluorophenyl)-6-{[(1R)-1-cyclopropylethyl]amino}-7-[4-(trifluoromethyl)benzyl]-7H-purine-2-carboxylic acid], the figure is 204 nM. On the same count and under the same terms, as for `C[C@@H](Nc1nc(C(=O)O)nc2nc(-c3ccc4sccc4c3)n(Cc3ccc(Cl)cc3)c12)C1CC1` [Example 2.7, 8-(1-benzothiophen-5-yl)-7-(4-chlorobenzyl)-6-{[(1R)-1-cyclopropylethyl]amino}-7H-purine-2-carboxylic acid], the figure is 259 nM.

Staying with this experiment, now noted: Table 4.
As for `CCOc1ccc(C)cc1-c1nc2nc(C(=O)O)nc(N[C@H](C)C3CCC3)c2n1Cc1ccc(Cl)cc1` [Example 4.1, (R)-7-(4-chlorobenzyl)-6-((1-cyclobutylethyl)amino)-8-(2-ethoxy-5-methylphenyl)-7H-purine-2-carboxylic acid], the midpoint of inhibition, the IC50, lay at 32 nM.

The same experiment, now with this note: Table 5.
For `COc1ccc(Cn2c(-c3cccc(C)c3)nc3nc(C(=O)O)nc(N[C@H](C)C4CCC4)c32)cc1` [Example 5.19, 6-{[(1R)-1-cyclobutylethyl]amino}-7-(4-methoxybenzyl)-8-(3-methylphenyl)-7H-purine-2-carboxylic acid], the IC50 was 582 nM.

The target in another experiment is T1, HDM2. Put plainly: HDM2 FRET assay (inhibition of binding of FITC labeled p53-pocket peptide to HDM2). Conditions: Table 7; read-out: FRET IC50. An outline of the steps:
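Signal is read as the 520/495 nm emission ratio and converted to percent inhibition; nonlinear sigmoidal regression yields IC50. The assay mixes HDM2 (0.5 nM), FITC-p53 peptide (3 nM) and Tb anti-His antibody (0.25 nM) at 0.1% DMSO.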
As for `Cc1cccc(-c2nc3nc(C(=O)O)nc(N4CCC[C@@H]4C4CCC4)c3n2Cc2ccc(C(F)(F)F)cc2)c1` [Example 7.8, 6-[(2R)-2-cyclobutylpyrrolidin-1-yl]-8-(3-methylphenyl)-7-[4-(trifluoromethyl)benzyl]-7H-purine-2-carboxylic acid], the IC50 is 188 nM.

Staying with this experiment, now noted: Table 11; read-out: FRET IC50.
For the compound `C[C@@H](Nc1nc(-c2noc(=O)[nH]2)nc2nc(N3CC4CC4C3C(F)(F)F)n(C[C@H]3CC[C@H](C)CC3)c12)C1CCC1` (stereo partly drawn) [Example 11.152, 3-(6-{[(1R)-1-cyclobutylethyl]amino}-7-[(trans-4-methylcyclohexyl)methyl]-8-[2-(trifluoromethyl)-3-azabicyclo[3.1.0]hex-3-yl]-7H-purin-2-yl)-1,2,4-oxadiazol-5(4H)-one], the IC50 worked out at 3.09 nM.

Staying with this experiment, now noted: Table 22; read-out: FRET IC50.
On to `C[C@@H](Nc1nc(-c2noc(=O)[nH]2)nc2nc(C(O)C3CCOCC3)n(C[C@H]3CC[C@H](C)CC3)c12)C1CCC1` (stereo partly drawn) [Example 22.34, 3-(6-{[(1R)-1-cyclobutylethyl]amino}-8-[hydroxy(tetrahydro-2H-pyran-4-yl)methyl]-7-[(trans-4-methylcyclohexyl)methyl] -7H-purin-2-yl)-1,2,4-oxadiazol-5(4H)-one], for which the IC50 is 24.6 nM.

The record behind these values is patent EP2951180B1, “2,6,7,8 SUBSTITUTED PURINES AS HDM2 INHIBITORS” (Merck Sharp & Dohme Corp., priority 2013, dated 2014).
